Laboratory results published in patent publication US9670227B2, “Thienopyrimidine derivatives, a process for their preparation and pharmaceutical compositions containing them” (LES LABORATOIRES SERVIER, priority 2013, dated 2017).
Like-named read-outs stand apart in the source and are kept apart here.

Key:
[1] = system: H929 multiple myeloma tumour line; assay: In vitro cytotoxicity, Microculture Tetrazolium Assay; type: cell-based; conditions: H929 cells, 48 hours exposure, MTT, read-out: IC50 (μM) MTT H929
Experimental: The cytotoxicity studies were carried out on the H929 multiple myeloma tumour line.
The cells are distributed onto microplates and exposed to the test compounds for 48 hours.

Mcl-1 protein = Mcl-1 protein (UniProtKB primary accession number: Q07820) (Homo sapiens, UniProt Q07820); assay: Inhibition of Mcl-1 by fluorescence polarisation, Method 1; type: binding; conditions: fluorescence polarisation test; Method 2 values are underlined in the patent (underlining not visible here); read-out: IC50 (M) Mcl-1 FP
Method in brief: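 Compounds were tested as 11-point serial dilutions at 5% final DMSO against 5 nM Mcl-1 with 1 nM fluorescein-labelled ligand in 10 mM HEPES, 150 mM NaCl, 0.05% Tween 20, pH 7.4. Relative binding potency was read by fluorescence polarisation.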

Mcl-1 protein, sequence (Q07820 whole entry): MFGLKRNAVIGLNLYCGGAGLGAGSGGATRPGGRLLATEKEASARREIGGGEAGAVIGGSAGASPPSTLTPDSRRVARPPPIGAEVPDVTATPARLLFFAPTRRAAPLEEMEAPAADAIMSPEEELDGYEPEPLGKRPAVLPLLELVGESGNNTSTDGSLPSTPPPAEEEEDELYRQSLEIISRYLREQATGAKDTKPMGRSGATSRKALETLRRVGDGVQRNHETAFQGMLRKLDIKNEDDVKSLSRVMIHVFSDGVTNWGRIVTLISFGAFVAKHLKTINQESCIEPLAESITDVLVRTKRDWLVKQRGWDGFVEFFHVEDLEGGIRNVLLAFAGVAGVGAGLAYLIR

SMILES	IC50 ([1]; Homo sapiens, NCI-H929, 48 h) [µM]	IC50 (Mcl-1 protein) [M]	IC50 [1] [µM]
Cc1c(-c2c(-c3ccco3)sc3ncnc(OC(Cc4ccccc4OCc4cnn(C)c4)C(=O)O)c23)ccc(OCCN2CCN(C)CC2)c1Cl [Example 279, (2R)-2-{[(5Sa)-5-{3-chloro-2-methyl-4-[2-(4-methylpiperazin-1-yl)ethoxy]phenyl}-6-(furan-2-yl)thieno[2,3-d]pyrimidin-4-yl]oxy}-3-{2-[(1-methyl-1H-pyrazol-4-yl)methoxy]phenyl}propanoic acid]	0.406	8e-09	
Cc1c(-c2c(-c3ccco3)sc3ncnc(OC(Cc4ccccc4OCc4cocn4)C(=O)O)c23)ccc(OCCN2CCN(C)CC2)c1Cl [Example 280, (2R)-2-{[(5Sa)-5-{3-chloro-2-methyl-4-[2-(4-methylpiperazin-1-yl)ethoxy]phenyl}-6-(furan-2-yl)thieno[2,3-d]pyrimidin-4-yl]oxy}-3-[2-(1,3-oxazol-4-ylmethoxy)phenyl]propanoic acid]	0.071	4e-09	
Cc1c(-c2c(-c3ccco3)sc3ncnc(OC(Cc4ccccc4OCc4cscn4)C(=O)O)c23)ccc(OCCN2CCN(C)CC2)c1Cl [Example 281, (2R)-2-{[(5Sa)-5-{3-chloro-2-methyl-4-[2-(4-methylpiperazin-1-yl)ethoxy]phenyl}-6-(furan-2-yl)thieno[2,3-d]pyrimidin-4-yl]oxy}-3-[2-(1,3-thiazol-4-ylmethoxy)phenyl]propanoic acid]	0.081	7.9e-09	
Cc1c(-c2c(-c3ccco3)sc3ncnc(OC(Cc4ccccc4OCc4c5ccccc5nn4C)C(=O)O)c23)ccc(OCCN2CCN(C)CC2)c1Cl [Example 282, (2R)-2-{[(5Sa)-5-{3-chloro-2-methyl-4-[2-(4-methylpiperazin-1-yl)ethoxy]phenyl}-6-(furan-2-yl)thieno[2,3-d]pyrimidin-4-yl]oxy}-3-{2-[(2-methyl-2H-indazol-3-yl)methoxy]phenyl}propanoic acid]	0.601	4e-08	
Cc1c(-c2c(-c3ccco3)sc3ncnc(OC(Cc4ccccc4OCc4ncc(-c5ccccc5)cn4)C(=O)O)c23)ccc(OCCN2CCN(C)CC2)c1Cl [Example 283, (2R)-2-{[(5Sa)-5-{3-chloro-2-methyl-4-[2-(4-methylpiperazin-1-yl)ethoxy]phenyl}-6-(furan-2-yl)thieno[2,3-d]pyrimidin-4-yl]oxy}-3-{2-[(5-phenylpyrimidin-2-yl)methoxy]phenyl}propanoic acid]	0.25	2.6e-08	
Cc1c(-c2c(-c3ccco3)sc3ncnc(OC(Cc4ccccc4OCc4nccc5ccccc45)C(=O)O)c23)ccc(OCCN2CCN(C)CC2)c1Cl [Example 284, (2R)-2-{[(5Sa)-5-{3-chloro-2-methyl-4-[2-(4-methylpiperazin-1-yl)ethoxy]phenyl}-6-(furan-2-yl)thieno[2,3-d]pyrimidin-4-yl]oxy}-3-[2-(isoquinolin-1-ylmethoxy)phenyl]propanoic acid]	1.79	4.8e-08	
Cc1c(-c2c(-c3ccco3)sc3ncnc(OC(Cc4ccccc4OCc4ncccc4Cl)C(=O)O)c23)ccc(OCCN2CCN(C)CC2)c1Cl [Example 285, (2R)-2-{[(5Sa)-5-{3-chloro-2-methyl-4-[2-(4-methylpiperazin-1-yl)ethoxy]phenyl}-6-(furan-2-yl)thieno[2,3-d]pyrimidin-4-yl]oxy}-3-{2-[(3-chloropyridin-2-yl)methoxy]phenyl}propanoic acid]	0.588	1.7e-08	
Cc1c(-c2c(-c3ccco3)sc3ncnc(OC(Cc4ccccc4OCc4ncccn4)C(=O)O)c23)ccc(OCCN2CCN(C)CC2)c1Cl [Example 286, (2R)-2-{[(5Sa)-5-{3-chloro-2-methyl-4-[2-(4-methylpiperazin-1-yl)ethoxy]phenyl}-6-(furan-2-yl)thieno[2,3-d]pyrimidin-4-yl]oxy}-3-[2-(pyrimidin-2-ylmethoxy)phenyl]propanoic acid]	0.508	7.6e-09	
Cc1c(-c2c(-c3ccco3)sc3ncnc(OC(Cc4ccccc4OCc4nccn4C)C(=O)O)c23)ccc(OCCN2CCN(C)CC2)c1Cl [Example 287, (2R)-2-{[(5Sa)-5-{3-chloro-2-methyl-4-[2-(4-methylpiperazin-1-yl)ethoxy]phenyl}-6-(furan-2-yl)thieno[2,3-d]pyrimidin-4-yl]oxy}-3-{2-[(1-methyl-1H-imidazol-2-yl)methoxy]phenyl}propanoic acid]	0.667	8.3e-09	
Cc1c(-c2c(-c3ccco3)sc3ncnc(OC(Cc4ccccc4OCCC(F)(F)F)C(=O)O)c23)ccc(OCCN2CCN(C)CC2)c1Cl [Example 288, (2R)-2-{[(5Sa)-5-{3-chloro-2-methyl-4-[2-(4-methylpiperazin-1-yl)ethoxy]phenyl}-6-(furan-2-yl)thieno[2,3-d]pyrimidin-4-yl]oxy}-3-[2-(3,3,3-trifluoropropoxy)phenyl]propanoic acid]	0.086	1.2e-08	
Cc1c(-c2c(-c3ccco3)sc3ncnc(OC(Cc4ccccc4OCCc4ccccn4)C(=O)O)c23)ccc(OCCN2CCN(C)CC2)c1Cl [Example 289, (2R)-2-{[(5Sa)-5-{3-chloro-2-methyl-4-[2-(4-methylpiperazin-1-yl)ethoxy]phenyl}-6-(furan-2-yl)thieno[2,3-d]pyrimidin-4-yl]oxy}-3-{2-[2-(pyridin-2-yl)ethoxy]phenyl}propanoic acid]	0.18	1.4e-08	
Cc1c(-c2c(-c3ccco3)sc3ncnc(OC(Cc4ccccc4OCCOc4ccccc4)C(=O)O)c23)ccc(OCCN2CCN(C)CC2)c1Cl [Example 291, (2R)-2-{[(5Sa)-5-{3-chloro-2-methyl-4-[2-(4-methylpiperazin-1-yl)ethoxy]phenyl}-6-(furan-2-yl)thieno[2,3-d]pyrimidin-4-yl]oxy}-3-[2-(2-phenoxyethoxy)phenyl]propanoic acid]	1.3	3.8e-08	
Cc1c(-c2c(-c3ccco3)sc3ncnc(OC(Cc4ccccc4OCCOCc4ccccc4)C(=O)O)c23)ccc(OCCN2CCN(C)CC2)c1Cl [Example 292, (2R)-3-{2-[2-(benzyloxy)ethoxy]phenyl}-2-{[(5Sa)-5-{3-chloro-2-methyl-4-[2-(4-methylpiperazin-1-yl)ethoxy]phenyl}-6-(furan-2-yl)thieno[2,3-d]pyrimidin-4-yl]oxy}propanoic acid]	0.192	9.3e-09	
Cc1c(-c2c(-c3ccco3)sc3ncnc(OC(Cc4ccccc4OCc4cn(Cc5ccccc5)nn4)C(=O)O)c23)ccc(OCCN2CCN(C)CC2)c1Cl [Example 294, (2R)-3-{2-[(1-benzyl-1H-1,2,3-triazol-4-yl)methoxy]phenyl}-2-{[(5Sa)-5-{3-chloro-2-methyl-4-[2-(4-methylpiperazin-1-yl)ethoxy]phenyl}-6-(furan-2-yl)thieno[2,3-d]pyrimidin-4-yl]oxy}propanoic acid]	0.886	1.6e-08	
Cc1c(-c2c(-c3ccco3)sc3ncnc(OC(Cc4ccccc4OCc4cnnn4Cc4ccccc4)C(=O)O)c23)ccc(OCCN2CCN(C)CC2)c1Cl [Example 295, (2R)-3-{2-[(1-benzyl-1H-1,2,3-triazol-5-yl)methoxy]phenyl}-2-{[(5Sa)-5-{3-chloro-2-methyl-4-[2-(4-methylpiperazin-1-yl)ethoxy]phenyl}-6-(furan-2-yl)thieno[2,3-d]pyrimidin-4-yl]oxy}propanoic acid]	0.021	4.7e-09	
COc1ccccc1CC(Oc1ncnc2sc(-c3ccco3)c(-c3ccc(OCC4CCCN4C)c(Cl)c3C)c12)C(=O)O [Example 298, (2R)-2-{[(5Sa)-5-(3-chloro-2-methyl-4-{[(2S)-1-methylpyrrolidin-2-yl]methoxy}phenyl)-6-(furan-2-yl)thieno[2,3-d]pyrimidin-4-yl]oxy}-3-(2-methoxyphenyl)propanoic acid]	1.14	1.2e-08	
COc1ccccc1CC(Oc1ncnc2sc(-c3ccco3)c(-c3ccc(OCC4CCCN4C)c(Cl)c3C)c12)C(=O)O [Example 299, (2R)-2-{[(5Sa)-5-(3-chloro-2-methyl-4-{[(2R)-1-methylpyrrolidin-2-yl]methoxy}phenyl)-6-(furan-2-yl)thieno[2,3-d]pyrimidin-4-yl]oxy}-3-(2-methoxyphenyl)propanoic acid]		1.6e-08	1.03
COc1ccccc1CC(Oc1ncnc2sc(-c3ccco3)c(-c3ccc(OC4CCN(C)C4)c(Cl)c3C)c12)C(=O)O [Example 303, (2R)-2-{[(5Sa)-5-{3-chloro-2-methyl-4-[(1-methylpyrrolidin-3-yl)oxy]phenyl}-6-(furan-2-yl)thieno[2,3-d]pyrimidin-4-yl]oxy}-3-(2-methoxyphenyl)propanoic acid]	0.998	9.3e-09	
COc1ccccc1CC(Oc1ncnc2sc(-c3ccco3)c(-c3ccc(OC4CCN(C)CC4)c(Cl)c3C)c12)C(=O)O [Example 304, (2R)-2-{[(5Sa)-5-{3-chloro-2-methyl-4-[(1-methylpiperidin-4-yl)oxy]phenyl}-6-(furan-2-yl)thieno[2,3-d]pyrimidin-4-yl]oxy}-3-(2-methoxyphenyl)propanoic acid]	1.7	1.1e-08	
COc1ccccc1CC(Oc1ncnc2sc(-c3ccco3)c(-c3ccc(OCC4CCN(C)C4)c(Cl)c3C)c12)C(=O)O [Example 310, (2R)-2-{[(5Sa)-5-{3-chloro-2-methyl-4-[(1-methylpyrrolidin-3-yl)methoxy]phenyl}-6-(furan-2-yl)thieno[2,3-d]pyrimidin-4-yl]oxy}-3-(2-methoxyphenyl)propanoic acid]	0.26	1.4e-08	
